Measurements taken from PMC11225630 (Journal of Oral Microbiology, 2024).
Values belong to the molecule of their own block, whether it stands above or below them. Where a SMILES comes first, the peptide text is derived from it.

How the values were obtained:
Experiment in all cases: AMC release by intact cells, fluorescence
Type in all cases: cell-based
Settings in all cases: 20 uM; 50 mM phosphate, 5 mM EDTA, 100 mM NaCl, 37 C, 3 h
[1] = target: DPP4 (Porphyromonas gingivalis, UniProt B2RKU3)
[2] = target: T1, DPP11 (Porphyromonas gingivalis, UniProt B2RID1)
T1 sequence (B2RID1 22-720): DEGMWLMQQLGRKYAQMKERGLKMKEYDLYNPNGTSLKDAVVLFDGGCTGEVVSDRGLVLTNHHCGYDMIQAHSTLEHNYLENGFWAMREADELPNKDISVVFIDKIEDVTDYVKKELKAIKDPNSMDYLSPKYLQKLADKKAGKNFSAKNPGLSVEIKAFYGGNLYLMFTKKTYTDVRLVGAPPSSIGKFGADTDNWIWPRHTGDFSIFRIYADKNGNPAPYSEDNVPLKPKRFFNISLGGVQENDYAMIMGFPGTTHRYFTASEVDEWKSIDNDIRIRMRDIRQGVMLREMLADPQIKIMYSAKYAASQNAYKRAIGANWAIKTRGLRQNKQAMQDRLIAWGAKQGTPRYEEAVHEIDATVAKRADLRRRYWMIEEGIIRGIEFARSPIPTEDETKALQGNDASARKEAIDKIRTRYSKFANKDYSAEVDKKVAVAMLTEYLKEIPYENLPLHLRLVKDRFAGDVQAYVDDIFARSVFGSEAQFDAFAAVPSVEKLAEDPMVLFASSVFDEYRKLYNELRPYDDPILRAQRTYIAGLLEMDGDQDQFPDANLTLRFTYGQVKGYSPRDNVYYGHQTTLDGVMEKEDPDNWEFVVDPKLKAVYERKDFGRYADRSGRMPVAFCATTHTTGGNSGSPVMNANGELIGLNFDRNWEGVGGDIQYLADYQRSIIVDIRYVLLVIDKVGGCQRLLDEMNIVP

[3] = target: T2, DPP5 (Porphyromonas gingivalis, UniProt B2RIT0)
T2 sequence (B2RIT0 25-684): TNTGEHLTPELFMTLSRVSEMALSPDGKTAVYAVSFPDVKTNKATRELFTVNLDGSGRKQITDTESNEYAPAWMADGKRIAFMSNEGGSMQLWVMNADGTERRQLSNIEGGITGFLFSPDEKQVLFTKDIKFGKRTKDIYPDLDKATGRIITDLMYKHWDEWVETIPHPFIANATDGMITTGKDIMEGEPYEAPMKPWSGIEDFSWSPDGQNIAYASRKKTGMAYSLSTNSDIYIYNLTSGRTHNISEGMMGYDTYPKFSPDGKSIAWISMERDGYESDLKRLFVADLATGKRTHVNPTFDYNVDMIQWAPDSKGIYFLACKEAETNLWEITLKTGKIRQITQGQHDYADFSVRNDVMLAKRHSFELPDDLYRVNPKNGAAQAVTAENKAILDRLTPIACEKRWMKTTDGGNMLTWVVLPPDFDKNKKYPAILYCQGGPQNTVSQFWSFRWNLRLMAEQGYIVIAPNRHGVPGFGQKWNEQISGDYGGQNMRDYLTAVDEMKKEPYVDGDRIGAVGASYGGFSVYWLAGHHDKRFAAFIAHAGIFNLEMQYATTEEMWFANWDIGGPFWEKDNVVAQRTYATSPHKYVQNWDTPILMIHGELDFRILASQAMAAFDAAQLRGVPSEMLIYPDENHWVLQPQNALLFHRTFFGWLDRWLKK

- AMC release by intact cells, fluorescence [1]: Gly-Pro-MCA (substrate of DPP4)
SMILES: Cc1cc(=O)oc2cc(NC(=O)[C@@H]3CCCN3C(=O)CN)ccc12 [Gly-Pro-MCA] (HELM PEPTIDE1{G.P.[Cc1cc(=O)oc2cc(N[*:1])ccc12]}$$$$V2.0)

- AMC release by intact cells, fluorescence [2]: Leu-Asp-MCA (substrate of DPP11)
SMILES: Cc1cc(=O)oc2cc(NC(=O)[C@H](CC(=O)O)NC(=O)[C@@H](N)CC(C)C)ccc12 [Leu-Asp-MCA] (HELM PEPTIDE1{L.D.[Cc1cc(=O)oc2cc(N[*:1])ccc12]}$$$$V2.0)

- AMC release by intact cells, fluorescence [3]: Lys-Ala-MCA (substrate of DPP5)
SMILES: Cc1cc(=O)oc2cc(NC(=O)[C@H](C)NC(=O)[C@@H](N)CCCCN)ccc12 [Lys-Ala-MCA] (HELM PEPTIDE1{K.A.[Cc1cc(=O)oc2cc(N[*:1])ccc12]}$$$$V2.0)
